The values below come from patent US10065990B2, “Cyclic peptide compound, and preparation method, pharmaceutical composition and use thereof” (HANGZHOU GUANYU BIO-MEDICAL CO., LTD, priority 2013, dated 2018).

Read-outs that look alike come from different tables or passages of the source.

For experiment [1], the system named is N-87 (human gastric cancer cells). Description: MTT cancer cell growth inhibition. Type of experiment: cell-based. The following applies: Homo sapiens, 72 h, MTT, 72 hours incubation, N-87 cells; read-out: GI50 N-87. The method, boiled down: (§1)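 GI50 values come from MTT viability: after 72 h compound exposure (final 10^−5–10^−10 M, three wells each) of cells plated overnight at 1500/well in 10% FBS medium, MTT was given for 4 h. The DMSO-solubilised formazan was then measured at 570 nm.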

For experiment [2], the system named is KBM5-T315I (human chronic myelogenous leukemia). Description: MTT cancer cell growth inhibition. Type of experiment: cell-based. The following applies: Homo sapiens, 72 h, MTT, 72 hours incubation, KBM5-T315I cells; read-out: GI50 KBM5-T315I. The gist of the method:
as §1

For experiment [3], the system named is Huh-7 (human hepatoma cells). Description: MTT cancer cell growth inhibition. Format: cell-based. The following applies: Homo sapiens, Huh-7, 72 h, MTT, 72 hours incubation, Huh-7 cells; read-out: GI50 Huh-7. The method, boiled down: as §1
The subject of experiment [4] is HT1080 (human fibrosarcoma cells). Description: MTT cancer cell growth inhibition. Format: cell-based. The following applies: Homo sapiens, HT-1080, 72 h, MTT. The gist of the method:
as §1

The test system of experiment [5] is BGC-823 (human gastric cancer cells). Description: MTT cancer cell growth inhibition. Format: cell-based. The following applies: Homo sapiens, BGC-823, 72 h, MTT. The gist of the method: as §1
For experiment [6], the system named is SGC-7901 (human gastric cancer cells). Description: MTT cancer cell growth inhibition. Format: cell-based. The following applies: Homo sapiens, SGC-7901, 72 h, MTT, 72 hours incubation, SGC-7901 cells; read-out: GI50 SGC-7901. The gist of the method: as §1
Experiment [7] deals with MDA-MB-231 (breast cancer cells). Description: MTT cancer cell growth inhibition. The following applies: Homo sapiens, MDA-MB-231, 72 h, read-out: GI50 MDA-MB-231, MTT, 72 hours incubation, MDA-MB-231 cells. Type of experiment: cell-based. The gist of the method: as §1
Experiment [8] deals with KBM-5 (human chronic myelogenous leukemia). Description: MTT cancer cell growth inhibition. Format: cell-based. The following applies: Homo sapiens, KBM5, 72 h, MTT, 72 hours incubation, KBM-5 cells; read-out: GI50 KBM-5. The method, boiled down:
as §1

Experiment [9] has as its system Hela (human cervical cancer cells). Description: MTT cancer cell growth inhibition. Format: cell-based. The following applies: Homo sapiens, HeLa, 72 h, MTT. The method, boiled down: as §1
Experiment [10] has as its target T1, HDAC7 (Homo sapiens, UniProt Q8WUI4).
T1 sequence (Q8WUI4 1-952): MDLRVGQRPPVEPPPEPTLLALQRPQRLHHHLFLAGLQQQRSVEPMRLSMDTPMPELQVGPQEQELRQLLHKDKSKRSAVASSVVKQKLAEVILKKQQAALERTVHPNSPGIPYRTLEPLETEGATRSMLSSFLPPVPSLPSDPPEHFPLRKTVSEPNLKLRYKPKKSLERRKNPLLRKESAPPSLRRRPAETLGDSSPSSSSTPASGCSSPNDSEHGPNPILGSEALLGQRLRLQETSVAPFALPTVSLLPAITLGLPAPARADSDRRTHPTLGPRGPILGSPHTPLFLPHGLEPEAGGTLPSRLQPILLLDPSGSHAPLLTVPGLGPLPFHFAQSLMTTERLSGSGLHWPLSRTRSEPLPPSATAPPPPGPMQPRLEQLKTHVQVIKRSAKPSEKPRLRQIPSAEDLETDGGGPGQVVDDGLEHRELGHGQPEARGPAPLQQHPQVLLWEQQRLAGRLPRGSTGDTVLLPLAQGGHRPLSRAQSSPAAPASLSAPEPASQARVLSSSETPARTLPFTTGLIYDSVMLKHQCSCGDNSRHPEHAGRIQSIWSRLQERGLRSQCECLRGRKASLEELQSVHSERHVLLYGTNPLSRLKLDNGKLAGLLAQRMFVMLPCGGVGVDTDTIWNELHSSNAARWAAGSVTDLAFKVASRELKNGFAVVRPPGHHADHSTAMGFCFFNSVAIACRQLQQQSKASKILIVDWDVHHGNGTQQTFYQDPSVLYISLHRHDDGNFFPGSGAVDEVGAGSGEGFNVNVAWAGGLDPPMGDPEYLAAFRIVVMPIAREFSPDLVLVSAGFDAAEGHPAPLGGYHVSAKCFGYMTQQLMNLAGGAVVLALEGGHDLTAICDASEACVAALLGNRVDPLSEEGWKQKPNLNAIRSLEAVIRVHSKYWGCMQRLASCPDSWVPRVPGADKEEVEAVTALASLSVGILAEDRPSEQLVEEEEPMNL
Description: HDAC biochemical activity measurement (fluorescent substrate deacetylation). The following applies: HDAC7; 37° C. 30 minutes.

In experiment [11] the target is HDAC1 (Homo sapiens, UniProt Q13547). The description is as above.
Chain of HDAC1 (Q13547 whole entry, species assumed): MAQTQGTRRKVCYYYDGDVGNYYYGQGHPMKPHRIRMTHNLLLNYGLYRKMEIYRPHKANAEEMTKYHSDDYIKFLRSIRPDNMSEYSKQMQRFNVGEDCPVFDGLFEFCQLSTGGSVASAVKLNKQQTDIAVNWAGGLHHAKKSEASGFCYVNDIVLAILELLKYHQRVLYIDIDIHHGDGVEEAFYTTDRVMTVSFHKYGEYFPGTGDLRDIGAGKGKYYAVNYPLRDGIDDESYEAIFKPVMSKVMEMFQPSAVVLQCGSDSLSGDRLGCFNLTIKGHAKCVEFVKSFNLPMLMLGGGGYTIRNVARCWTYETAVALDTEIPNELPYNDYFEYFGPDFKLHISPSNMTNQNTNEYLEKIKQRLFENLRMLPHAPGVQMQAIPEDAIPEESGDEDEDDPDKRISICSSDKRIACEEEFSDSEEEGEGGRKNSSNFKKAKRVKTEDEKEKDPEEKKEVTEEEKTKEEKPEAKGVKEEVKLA
In experiment [12] the target is T2, HDAC8 (Homo sapiens, UniProt Q9BY41).
T2 sequence (Q9BY41 1-377): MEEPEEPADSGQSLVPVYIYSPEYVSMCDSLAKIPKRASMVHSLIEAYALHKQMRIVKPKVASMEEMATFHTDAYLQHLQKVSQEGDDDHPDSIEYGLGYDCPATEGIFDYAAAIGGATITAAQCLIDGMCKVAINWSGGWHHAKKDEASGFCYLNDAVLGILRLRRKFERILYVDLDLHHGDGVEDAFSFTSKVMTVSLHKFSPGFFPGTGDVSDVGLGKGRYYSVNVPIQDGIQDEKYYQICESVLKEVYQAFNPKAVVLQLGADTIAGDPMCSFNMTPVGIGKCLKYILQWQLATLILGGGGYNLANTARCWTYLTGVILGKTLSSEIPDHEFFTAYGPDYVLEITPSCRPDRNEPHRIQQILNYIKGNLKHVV
Described as above. The following applies: 37° C. 30 minutes.
Description: The chemical activity of the compound is determined according to the degree of deacetylation inhibition of the HDAC enzyme. This experiment measured the degree of deacetylation related to tumor proliferation and metastasis of HDAC1, HDAC2, HDAC3, HDAC8, HDAC11 five subtypes HDAC enzymes. After the substrate containing an acetylated lysine side chain and HDAC enzyme are labeled with a fluorescent label, the fluorescent substrate is de acetyl. The fluorescent labeled substrate is cleaved by the enzyme, and the fluorescent substance is released, which generates 460 nm emission light under the excitation of 360 nm light.
HDAC substrate was diluted with reaction buffer to 200M (reaction concentration of 20M), the HDAC enzyme was diluted to the appropriate concentration, then added different concentrations of the test compounds and acted at 37° C. 30 minutes, and then added the same volume of 2-times concentration substrate developing solution (developer), incubated at room temperature for 15 minutes.

In experiment [13] the target is HDAC3 (Homo sapiens, UniProt O15379). Described as above.
Chain of HDAC3 (O15379 whole entry, species assumed): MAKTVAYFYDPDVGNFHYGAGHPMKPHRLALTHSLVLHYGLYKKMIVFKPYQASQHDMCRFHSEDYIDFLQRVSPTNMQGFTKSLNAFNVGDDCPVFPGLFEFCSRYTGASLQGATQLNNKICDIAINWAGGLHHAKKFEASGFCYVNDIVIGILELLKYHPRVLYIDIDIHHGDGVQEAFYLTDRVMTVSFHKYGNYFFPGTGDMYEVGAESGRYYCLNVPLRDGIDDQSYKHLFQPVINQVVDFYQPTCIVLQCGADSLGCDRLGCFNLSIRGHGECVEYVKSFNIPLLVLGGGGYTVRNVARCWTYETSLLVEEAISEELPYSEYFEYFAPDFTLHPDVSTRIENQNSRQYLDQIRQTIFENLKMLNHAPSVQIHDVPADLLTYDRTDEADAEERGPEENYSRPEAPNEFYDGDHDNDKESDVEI
Chain of HDAC3 (Q9Y618 395-489 partner limits assumed, species assumed): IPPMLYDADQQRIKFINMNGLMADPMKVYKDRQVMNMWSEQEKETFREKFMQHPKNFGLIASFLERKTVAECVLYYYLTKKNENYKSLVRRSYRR
Setting [14] is: HT1080 cells, 72 hours incubation, read-out: GI50 HT1.
[15] abbreviates: BGC-823 cells, 72 hours incubation, read-out: GI50 BG.
[16] abbreviates: Hela cells, 72 hours incubation, read-out: GI50 Hela.
[17] abbreviates: HDAC1, 37° C. 30 minutes, read-out: IC50 HDAC1.
Where [18] appears, read: 72 hours incubation, read-out: GI50 HT1.
Setting [19] is: 72 hours, present invention, read-out: GI50 HT1080, a.
[20] abbreviates: 72 hours incubation, read-out: GI50 BG.
[21] abbreviates: 72 hours, present invention, read-out: GI50 BGC823, a.
Where [22] appears, read: 72 hours incubation, read-out: GI50 Hela.
The mark [23] stands for this setting: 72 hours, present invention, read-out: GI50 Hela, a.
Setting [24] is: Table 2, read-out: IC50 HDAC1, a (compounds of the present invention).
[25] abbreviates: Table 3, read-out: IC50 HDAC1, D (non-substituent).
[26] abbreviates: read-out: IC50 HDAC3, HDAC3, 37° C. 30 minutes.
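Wherever IC50 HDAC1 is given: fluorogenic acetyl-lysine substrate (20 µM) deacetylated by HDAC1, then developer releases fluorophore read at 360 nm excitation and 460 nm emission, inhibitor incubated 30 min at 37 °C.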
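Wherever IC50 HDAC1, C (six-membered ring with substituents) is given: fluorogenic acetyl-lysine substrate (20 µM) deacetylated by HDAC1, then developer releases fluorophore read at 360 nm excitation and 460 nm emission, inhibitor incubated 30 min at 37 °C.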
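Wherever IC50 HDAC1, D (non-substituent) is given: fluorogenic acetyl-lysine substrate (20 µM) deacetylated by HDAC1, then developer releases fluorophore read at 360 nm excitation and 460 nm emission, inhibitor incubated 30 min at 37 °C.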
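Wherever IC50 HDAC1, a (compounds of the present invention) is given: fluorogenic acetyl-lysine substrate (20 µM) deacetylated by HDAC1, then developer releases fluorophore read at 360 nm excitation and 460 nm emission, inhibitor incubated 30 min at 37 °C.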
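Wherever IC50 HDAC7 is given: fluorogenic deacetylation assay using acetyl-lysine substrate at 20 µM, enzyme and compound incubated 30 min at 37 °C, then developer added, fluorescence read at 360/460 nm.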

The term GI50 denotes the concentration that inhibits growth by half. For orientation: IC50 means the concentration that gives 50% inhibition. `C/C=C1\NC(=O)c2cc(SC)cc(n2)CNC(=O)C[C@@H](/C=C/CCSC(C)=O)OC(=O)[C@H](CCCCN)NC1=O` [Compound 193]: the GI50 amounted to 23 nM in experiment [1]; 41 nM in experiment [2]; 33 nM in experiment [3]; 10 nM in experiment [4] (setting [14]); 30 nM in experiment [5] (setting [15]); 73 nM in experiment [6]. In addition, the GI50 in experiment [7] is 43 nM; in experiment [8] it was 31 nM; in [9] (setting [16]), 430 nM. For the same compound, the “IC50 HDAC7” value in experiment [10] is “no activity”. The half-inhibitory concentration (IC50) worked out at 43 nM in [11] (setting [17]), 49 nM in experiment [12] and 39 nM in experiment [13].

As for `C/C=C1\NC(=O)c2cccc(n2)CNC(=O)C[C@@H](/C=C/CCSC(C)=O)OC(=O)[C@H](C(C)C)NC1=O` [Compound 7], the GI50 was 29 nM in experiment [1]; 52 nM in experiment [2]; 46 nM in experiment [3]; 20 nM in [4] (setting [18]); 27 nM in [4] (setting [19]); 30 nM in [5] (setting [20]). Moreover, the GI50 is 31 nM in [5] (setting [21]); 35 nM in [6]; 91 nM in experiment [7]; 49 nM in experiment [8]; 40 nM in [9] (setting [22]); 40 nM in experiment [9] (setting [23]). For the same compound, the “IC50 HDAC7” value in experiment [10] is given as “no activity”. Further, the IC50 is 87 nM in experiment [11] (setting [17]); less than 500 nM in [11] (setting [24]); 87 nM in experiment [11] (setting [25]); 39 nM in experiment [12]; 7 nM in [13] (setting [26]).

Regarding `C/C=C1\NC(=O)c2cccc(n2)CNC(=O)C[C@@H](/C=C/CCSC(=O)CCCCCCC)OC(=O)[C@H](CCSC)NC1=O` [Compound 240], the GI50 in [1] is 96 nM; in [2], 83 nM; in experiment [3] it was 61 nM; in experiment [4] (setting [14]), 10 nM; in [4] (setting [19]) it was 33 nM; in [5] (setting [15]), 190 nM. The concentration for 50% growth inhibition (GI50) was 110 nM in [5] (setting [21]); 24 nM in [6]; 37 nM in experiment [7]; 71 nM in experiment [8]; 70 nM in experiment [9] (setting [16]); 18 nM in [9] (setting [23]). Moreover, in experiment [10], the “IC50 HDAC7” value was “no activity”. In addition, the half-maximal inhibitory concentration (IC50) was 45 nM in experiment [11] (setting [17]), less than 50 nM in [11] (setting [24]), 52 nM in experiment [12] and 53 nM in experiment [13].

Turning to `C/C=C1\NC(=O)c2cccc(n2)CNC(=O)C[C@@H](/C=C/CCSC(=O)CCCCCCC)OC(=O)[C@H](Cc2ccccc2)NC1=O` [Compound 14], the GI50 in experiment [1] is 36 nM; in experiment [2], 12 nM; in experiment [3] it was 92 nM; in [4] (setting [18]), 300 nM; in experiment [4] (setting [19]), 300 nM; in experiment [5] (setting [20]), 200 nM. Also, the GI50 in experiment [5] (setting [21]) worked out at 200 nM; in [6], 43 nM; in experiment [7], 85 nM; in experiment [8], 94 nM; in experiment [9] (setting [22]), 220 nM; in experiment [9] (setting [23]), 220 nM. Also, the “IC50 HDAC7” value in experiment [10] is “no activity”. The IC50 in experiment [11] (setting [17]) was 94 nM; in experiment [11] (setting [24]), less than 100 nM; in experiment [11] (setting [25]) it was 94 nM; in [12] it was 57 nM; in experiment [13] (setting [26]), 43 nM.

With `C/C=C1\NC(=O)c2nc(ccc2F)CNC(=O)C[C@@H](/C=C/CCSC(C)=O)OC(=O)[C@H](CCCCN)NC1=O` [Compound 72], the 50% growth inhibitory concentration (GI50) was found to be 61 nM in experiment [1]; 39 nM in experiment [2]; 37 nM in experiment [3]; 60 nM in [4] (setting [18]); 60 nM in [5] (setting [20]); 26 nM in [6]. For the same compound, the GI50 in experiment [7] came to 37 nM; in [8] it was 49 nM; in experiment [9] (setting [22]), 40 nM. Also, the “IC50 HDAC7” value in experiment [10] is “no activity”. Besides, the IC50 in experiment [11] (setting [17]) amounted to 64 nM; in experiment [11] (Table 3, column C, read-out: IC50 HDAC1, C (six-membered ring with substituents)), 64 nM; in [12], 453 nM; in experiment [13] (setting [26]), 135 nM.

Take `C/C=C1\NC(=O)c2ccc(F)c(n2)CNC(=O)C[C@@H](/C=C/CCSC(C)=O)OC(=O)[C@H](CCCCN)NC1=O` [Example 74]: the GI50 came out at 37 nM in experiment [1]; 350 nM in experiment [2]; 24 nM in [3]; 40 nM in [4] (setting [18]); 30 nM in experiment [5] (setting [20]); 49 nM in [6]. Moreover, the GI50 was 24 nM in [7], 37 nM in experiment [8] and 30 nM in [9] (setting [22]). In [10], the “IC50 HDAC7” value is given as “no activity”. Moreover, the IC50 came to 273 nM in experiment [11] (setting [17]), 435 nM in [12] and 231 nM in experiment [13].

Regarding `C/C=C1\NC(=O)c2cccc(n2)CNC(=O)C[C@@H](/C=C/CCSC(C)=O)OC(=O)[C@H](C)NC1=O` [Compound 12], the GI50 in experiment [1] amounted to 28 nM; in [2] it was 31 nM; in [3], 86 nM; in [4] (setting [18]) it was 60 nM; in experiment [5] (setting [20]), 90 nM; in experiment [6] it was 36 nM. The figures for the GI50 in experiment [7], in experiment [8] and in experiment [9] (setting [22]) were 84 nM, 72 nM and 50 nM, respectively. Moreover, the “IC50 HDAC7” value in experiment [10] is “no activity”. Further, the half-inhibitory concentration (IC50) amounted to 81 nM in [11] (setting [17]), 81 nM in experiment [11] (setting [25]), 38 nM in experiment [12] and 52 nM in experiment [13] (setting [26]).
